Data on 24 compounds can be found in PMC6155273, “Antiprotozoal Activity of Triazole Derivatives of Dehydroabietic Acid and Oleanolic Acid” (Molecules : A Journal of Synthetic Chemistry and Natural …, 2017).

Converted amounts (≈) assume the structure as drawn. Like-named read-outs stand apart in the source and are kept apart here.

A short description of data set [1]: Cytotoxicity on NCTC-Clone 929 fibroblasts (resazurin). To be noted: mouse. Type of data set: cell-based. The method, then:
The cell line used was NCTC-Clone 929, which was grown in Minimal Essential Medium (Sigma) supplemented with 10% heat-inactivated FBS, penicillin G (100 U/mL), and streptomycin (100 µg/mL). Cell cultures were maintained at 37 °C in a humidified 5% CO2 atmosphere. The procedure for cell viability measurement was evaluated with resazurin by a colorimetric method. The cells were plated in 96-microtiter plates at 3 × 10^4 cells per well in a 100 µL growth medium. The cells were grown overnight at 37 °C, 5% CO2. Thereafter, the medium was removed and the compounds were added in a 200 µL medium for 24 h. After incubation, 20 µL of a 2 mM resazurin solution was added to each well. The plates were incubated for 3 h to allow optimal oxidation-reduction. The reduction of resazurin was determined by dual wavelength absorbance measurement at 490 and 595 nm. Background was subtracted. Each concentration was assayed three times. Medium and drug controls were used in each test as blanks.
For orientation: Alamar Blue is a resazurin reagent that responds to reducing activity.

In data set [2] the test system is L. infantum promastigotes. Kind of data set: Leishmanicidal activity on L. infantum promastigotes (resazurin). Type of data set: cell-based, Leishmania infantum. The note with it: 48 h; for IC50: Leishmania infantum, read-out: Leishmanicidal Activity on Promastigotes, L. infantum, IC50. The protocol: (§1) Culture of L. braziliensis (MHOM/BR/75/M2904), and L. infantum (MHOM/FR/91/LEM2259V) was obtained from the Facultad de Farmacia (Universidad Complutense de, Madrid, Spain). The maintenance of the strains, the form of cultivation, and the isolation of shape promastigota were performed following the procedures described by Roldos et al.. The promastigotes were grown at 22 °C in Schneider’s Drosophila medium supplemented with 20% FBS. The assay was performed using a modification of a previous method. Promastigotes (2 × 10^6 parasites/well) were cultured in 96-well plastic plates. Compounds were dissolved in dimethylsulfoxide (DMSO). Different dilutions of the compounds with a final volume up to 200 µL were added. After 48 h at 26 °C, 20 µL of a 2 mM resazurin solution was added, and the oxidation-reduction was quantified at 570 and 600 nm. The solution of resazurin was prepared at 2.5 mM in phosphate buffered solution (PBS), pH 7.4, and filtered through 0.22 µm prior to use. All tests were carried out in triplicate. Resazurin sodium salt was obtained from Sigma-Aldrich (St. Louis, MO, USA) and stored at 4 °C protected from light. The efficacy of each compound was estimated by calculating the IC50 values.

Data set [3] relates to L. braziliensis promastigotes. Kind of data set: Leishmanicidal activity on L. braziliensis promastigotes (resazurin). Type of data set: cell-based, Leishmania braziliensis. To be noted: 48 h; for IC50: Leishmania braziliensis, read-out: Leishmanicidal Activity on Promastigotes, L. braziliensis, IC50. The protocol:
as §1

Data set [4] has as its system T. cruzi epimastigotes. Kind of data set: Antiepimastigote activity, T. cruzi CL-B5 lacZ (CPRG). To be noted: clone CL-B5, 72 h; for IC50: Trypanosoma cruzi. Type of data set: cell-based, Trypanosoma cruzi. The method, then: For in vitro studies of T. cruzi, the clone CL-B5 was used (donated by Faculty of Pharmacy, Complutense University, Madrid, Spain). Parasites were stably transfected with the Escherichia coli β-galactosidase gene (lacZ). Epimastigotes were grown at 28 °C in liver infusion tryptose broth (Difco, Detroit, MI, USA) with 10% fetal bovine serum (FBS) (Gibco, Carlsbad, CA, USA), penicillin (Ern S.A., Barcelona, Spain), and streptomycin (Reig Jofré S.A., Barcelona, Spain), as described previously, and harvested during the exponential growth phase. Briefly, the screening assay was performed in 96-well microplates (Sarstedt, Inc., Newton, NC, USA) with cultures that had not reached the stationary phase. Epimastigotes were seeded at 2 × 10^5 parasites/mL in 200 µL growth media. The plates were then incubated with the respective compounds at 28 °C for 72 h; afterwards, 50 µL of chlorophenol red-β-D-galactopyranoside (CPRG) solution was added, resulting in a final concentration of 200 µM. The plates were incubated at 37 °C for an additional 4 h and then read at 595 nm. Each concentration was tested in triplicate. The efficacy of each compound was estimated by calculating the IC50 values. These values were calculated by the sigmoidal dose–response curve adjustment using the statistical software program Graph-Pad Prims 3.0 (GraphPhad, San Diego, CA, USA). Benznidazole was used as the reference drug.

Usually IC50 stands for the concentration needed to halve the response being measured. `Cc1ccc(S(=O)(=O)n2cc(CCC(=O)OC[C@]3(C)CCC[C@]4(C)c5ccc(C(C)C)cc5CCC34)nn2)cc1` (some centres unmarked) [Compound 15] had an IC50 at 24 h in data set [1] of 232 µg/mL (≈ 412 µM). The IC50 in data set [2] (promastigotes) was determined as 53 µg/mL (≈ 94 µM); in data set [3] (promastigotes), 89 µg/mL (≈ 158 µM); in data set [4], 69 µg/mL (≈ 122 µM).

In data set [1], `Cc1ccc(S(=O)(=O)n2cc(CCCC(=O)O[C@H]3CC[C@@]4(C)C(CC[C@]5(C)C4CC=C4[C@@H]6CC(C)(C)CC[C@]6(C(=O)O)CC[C@]45C)C3(C)C)nn2)cc1` (some centres unmarked) [Compound 31] registered an IC50 at 24 h of over 256 µg/mL. The IC50 was 128 µg/mL (≈ 171 µM) in data set [2] (promastigotes), over 256 µg/mL in data set [3] and over 256 µg/mL in data set [4].

Regarding `COC(=O)[C@]12CCC(C)(C)C[C@H]1C1=CCC3[C@@]4(C)CC[C@H](OC(=O)CCCc5cn(CSc6ccccc6)nn5)C(C)(C)C4CC[C@@]3(C)[C@]1(C)CC2` (some centres unmarked) [Compound 34], the IC50 in data set [2], in data set [3] and in data set [4] was over 256 µg/mL each time.

In the case of `CC(C)c1ccc2c(c1)CCC1[C@](C)(COC(=O)CCCCc3cn(-c4ccccc4)nn3)CCC[C@]21C` (some centres unmarked) [Compound 6], the IC50 at 24 h in data set [1] was over 256 µg/mL. Further, the IC50 in data set [2], in data set [3] and in data set [4] was over 256 µg/mL each time.

Turning to `CC(C)c1ccc2c(c1)CCC1[C@](C)(COC(=O)CCc3cn(CSc4ccccc4)nn3)CCC[C@]21C` (some centres unmarked) [Compound 9], the IC50 at 24 h in data set [1] is over 256 µg/mL. Further, the IC50 in data set [2], in data set [3] and in data set [4] was over 256 µg/mL in each case.

As to `CC(C)c1ccc2c(c1)CCC1[C@](C)(COC(=O)CCCCc3cn(Cc4cccc(Cl)c4)nn3)CCC[C@]21C` (some centres unmarked) [Compound 14], the IC50 at 24 h in data set [1] is over 256 µg/mL. In addition, the IC50 in data set [2], in data set [3] and in data set [4] was over 256 µg/mL in each case.

With `CC(C)c1ccc2c(c1)CCC1[C@](C)(COC(=O)CCCCc3cn(CSc4ccccc4)nn3)CCC[C@]21C` (some centres unmarked) [Compound 10], in data set [1], the IC50 at 24 h was over 256 µg/mL. Further, the IC50 in data set [2], in data set [3] and in data set [4] was over 256 µg/mL throughout.

In data set [1], `CC1(C)CC[C@]2(C(=O)O)CC[C@]3(C)C(=CCC4[C@@]5(C)CC[C@H](OC(=O)CCc6cn(CSc7ccccc7)nn6)C(C)(C)C5CC[C@]43C)[C@@H]2C1` (some centres unmarked) [Compound 29] showed an IC50 at 24 h of over 256 µg/mL. Also, the IC50 in data set [2], in data set [3] and in data set [4] was over 256 µg/mL throughout.

`COC(=O)[C@]12CCC(C)(C)C[C@H]1C1=CCC3[C@@]4(C)CC[C@H](OC(=O)CCc5cn(S(=O)(=O)c6ccc(C)cc6)nn5)C(C)(C)C4CC[C@@]3(C)[C@]1(C)CC2` (some centres unmarked) [Compound 28] registered an IC50 at 24 h in data set [1] of over 256 µg/mL. Moreover, the results for the IC50 in data set [2] (promastigotes), in data set [3] (promastigotes) and in data set [4] were over 256 µg/mL, over 256 µg/mL and 61 µg/mL (≈ 81.5 µM), respectively.

As for `CC(C)c1ccc2c(c1)CCC1[C@](C)(C(=O)OCc3cn(-c4ccccc4)nn3)CCC[C@]21C` (some centres unmarked) [Compound 1], the IC50 at 24 h in data set [1] is over 256 µg/mL. Further, the IC50 stood at 60 µg/mL (≈ 131 µM) in data set [2] (promastigotes), 53 µg/mL (≈ 116 µM) in data set [3] (promastigotes) and 46 µg/mL (≈ 101 µM) in data set [4].

As for `COc1ccc(-n2cc(CCCCC(=O)OC[C@]3(C)CCC[C@]4(C)c5ccc(C(C)C)cc5CCC34)nn2)cc1` (some centres unmarked) [Compound 12], the IC50 at 24 h in data set [1] was over 256 µg/mL. The IC50 in data set [2], in data set [3] and in data set [4] was over 256 µg/mL in each case.

`CC1(C)CC[C@]2(C(=O)O)CC[C@]3(C)C(=CCC4[C@@]5(C)CC[C@H](OC(=O)CCc6cn(Cc7ccc(Cl)cc7)nn6)C(C)(C)C5CC[C@]43C)[C@@H]2C1` (some centres unmarked) [Compound 25]: the IC50 at 24 h in data set [1] was over 256 µg/mL. Further, the IC50 in data set [2], in data set [3] and in data set [4] was over 256 µg/mL each time.

Take `COC(=O)[C@]12CCC(C)(C)C[C@H]1C1=CCC3[C@@]4(C)CC[C@H](OC(=O)CCCc5cn(S(=O)(=O)c6ccc(C)cc6)nn5)C(C)(C)C4CC[C@@]3(C)[C@]1(C)CC2` (some centres unmarked) [Compound 32]: the IC50 in data set [2], in data set [3] and in data set [4] was over 256 µg/mL each time.

For the compound `CC(C)c1ccc2c(c1)CC[C@H]1[C@](C)(C(=O)O)CCC[C@]21C` [DHA, Dehydroabietic acid], the IC50 in data set [2] (promastigotes) was determined as 72 µg/mL (≈ 240 µM); in data set [3] (promastigotes) it was 44 µg/mL (≈ 146 µM); in data set [4], 212 µg/mL (≈ 706 µM).

Consider `CC1(C)CC[C@]2(C(=O)O)CC[C@]3(C)C(=CCC4[C@@]5(C)CC[C@H](OC(=O)CCCc6cn(CSc7ccccc7)nn6)C(C)(C)C5CC[C@]43C)[C@@H]2C1` (some centres unmarked) [Compound 33], for which the IC50 in data set [2], in data set [3] and in data set [4] was over 256 µg/mL in each case.

In data set [1], `COc1ccc(-n2cc(CCC(=O)OC[C@]3(C)CCC[C@]4(C)c5ccc(C(C)C)cc5CCC34)nn2)cc1` (some centres unmarked) [Compound 11] came in with an IC50 at 24 h of over 256 µg/mL. The IC50 in data set [2], in data set [3] and in data set [4] was over 256 µg/mL in each case.

The compound `CC(C)c1ccc2c(c1)CCC1[C@](C)(C(=O)OCCc3cn(-c4ccccc4)nn3)CCC[C@]21C` (some centres unmarked) [Compound 2] registered a concentration for half-maximal inhibition (IC50) at 24 h in data set [1] of over 256 µg/mL. Besides, the IC50 in data set [2], in data set [3] and in data set [4] was over 256 µg/mL throughout.

Consider `CC(C)c1ccc2c(c1)CCC1[C@](C)(C(=O)OCc3cn(CSc4ccccc4)nn3)CCC[C@]21C` (some centres unmarked) [Compound 3], for which the IC50 at 24 h in data set [1] was over 256 µg/mL. For the same compound, the IC50 in data set [2], in data set [3] and in data set [4] was over 256 µg/mL throughout.

As to `COC(=O)[C@]12CCC(C)(C)C[C@H]1C1=CCC3[C@@]4(C)CC[C@H](OC(=O)CCc5cn(-c6ccccc6)nn5)C(C)(C)C4CC[C@@]3(C)[C@]1(C)CC2` (some centres unmarked) [Compound 22], the IC50 at 24 h in data set [1] is over 256 µg/mL. The IC50 in data set [2], in data set [3] and in data set [4] was over 256 µg/mL throughout.

Take `CC(C)c1ccc2c(c1)CC[C@H]1[C@](C)(CO)CCC[C@]21C` [Dehydroabietinol, dehydroabietinol, reference compound]: the “Leishmanicidal Activity on Promastigotes, L. infantum, IC50” value in data set [2] (promastigotes) was determined as 40 µg/mL. Also, the “Leishmanicidal Activity on Promastigotes, L. braziliensis, IC50” value in data set [3] (promastigotes) stood at 63 µg/mL. Moreover, the “Antiepimastigote Activity of T. cruzi, IC50” value in data set [4] is given as 66 µg/mL.

With `CC1(C)CC[C@]2(C(=O)O)CC[C@]3(C)C(=CCC4[C@@]5(C)CC[C@H](OC(=O)CCc6cn(-c7ccccc7)nn6)C(C)(C)C5CC[C@]43C)[C@@H]2C1` (some centres unmarked) [Compound 21], in data set [1], the IC50 at 24 h was over 256 µg/mL. Moreover, the IC50 in data set [2], in data set [3] and in data set [4] was over 256 µg/mL throughout.

As for `COC(=O)[C@]12CCC(C)(C)C[C@H]1C1=CCC3[C@@]4(C)CC[C@H](OC(=O)CCc5cn(Cc6ccc(Cl)cc6)nn5)C(C)(C)C4CC[C@@]3(C)[C@]1(C)CC2` (some centres unmarked) [Compound 26], the IC50 at 24 h in data set [1] was over 256 µg/mL. The IC50 in data set [2], in data set [3] and in data set [4] was over 256 µg/mL each time.

Consider `COc1ccc(-n2cc(CCC(=O)O[C@H]3CC[C@@]4(C)C(CC[C@]5(C)C4CC=C4[C@@H]6CC(C)(C)CC[C@]6(C(=O)O)CC[C@]45C)C3(C)C)nn2)cc1` (some centres unmarked) [Compound 23], for which the IC50 at 24 h in data set [1] was over 256 µg/mL. The IC50 in data set [2], in data set [3] and in data set [4] was over 256 µg/mL in each case.

As for `N=C(N)c1ccc(OCCCCCOc2ccc(C(=N)N)cc2)cc1` [Pentamidine, reference compound], the IC50 in data set [2] (promastigotes) and in data set [3] (promastigotes) was 3.3 µg/mL (≈ 9.69 µM) in each case.
